Values of other authors in paper PMC11089247 (Frontiers in Pharmacology, 2024).
Structures can show the parent of a compound that is named as a salt.

How the values were obtained:
[1] = tested on: CYP2C19; conditions: substrate fluoxetine, ref Fang et al., 2017
[2] = tested on: CYP2C9; parameters: method as in Ji et al., 2015; conditions: substrate fluoxetine, ref Ji et al., 2015

SMILES: CNCCC(Oc1ccc(C(F)(F)F)cc1)c1ccccc1 (centres unmarked) [fluoxetine, Fluoxetine hydrochloride]
- Km [1]: 97.6 µM
- Km [2]: 31.7 µM
